In paper PMC5552782, “Crystal Structure of MpPR-1i, a SCP/TAPS protein from Moniliophthora perniciosa, the fungus that causes Witches’ Broom Disease of Cacao” (Scientific Reports, 2017):

Molecular target: T1, MpPR-1i (Moniliophthora perniciosa, UniProt H6U756)
T1 construct: gene PR-1i; signal peptide removed; cDNA from green broom stage; modified pET SUMO, E. coli SHuffle; His-SUMO tag cut with ULP-1; untagged; monomer
Experiment: radioligand binding, Q-sepharose capture, scintillation counting

T1 sequence (H6U756 entry or part of it): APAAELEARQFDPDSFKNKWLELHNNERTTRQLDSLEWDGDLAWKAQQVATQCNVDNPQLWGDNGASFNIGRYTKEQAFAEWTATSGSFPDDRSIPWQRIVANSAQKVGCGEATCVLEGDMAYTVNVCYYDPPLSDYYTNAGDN

CCCCCCCCCCCCCCCC(=O)O [palmitic acid]
Kd: 107 µM
